Measurements: ChEMBL document CHEMBL6134852, “Electrostatic Anchoring in RNA-Ligand Design─Dissecting the Effects of Positive Charges on Affinity, Selectivity, Binding Kinetics, and Thermodynamics” (J Med Chem, 2025)

Columns and labels:
Ribozyme [1] = test: Binding affinity to Tetrahymena group I ribozyme (unknown origin) assessed as binding constant (Koff); type: nucleic-acid assay
Ribozyme [2] = test: Binding affinity to Tetrahymena group I ribozyme (unknown origin) assessed as dissociation constant; type: nucleic-acid assay
Ribozyme [3] = test: Binding affinity to Tetrahymena group I ribozyme (unknown origin) assessed as binding constant (Kon); type: nucleic-acid assay
PreQ1 riboswitch [4] = test: Binding affinity to SA sensor chip-immobilized Tte preQ1 riboswitch aptamer assessed as binding constant (Kon) by SPR analysis; type: nucleic-acid assay; conditions: Caldanaerobacter subterraneus; subsp. tengcongensis
PreQ1 riboswitch [5] = test: Binding affinity to SA sensor chip-immobilized Tte preQ1 riboswitch aptamer assessed as binding constant (Koff) by SPR analysis; type: nucleic-acid assay; conditions: Caldanaerobacter subterraneus; subsp. tengcongensis
PreQ1 riboswitch [6] = test: Binding affinity to SA sensor chip-immobilized Tte preQ1 riboswitch aptamer assessed as dissociation constant by SPR analysis; type: nucleic-acid assay, Caldanaerobacter subterraneus, subsp. tengcongensis
PreQ1 riboswitch [7] = test: Binding affinity to SA sensor chip-immobilized Tte preQ1 riboswitch aptamer assessed as dissociation constant by SPR steady-state analysis; type: nucleic-acid assay, Caldanaerobacter subterraneus, subsp. tengcongensis
PreQ1 riboswitch [8] = test: Binding affinity to Tte preQ1 riboswitch aptamer assessed as binding constant (Kon) by ITC analysis; type: nucleic-acid assay; conditions: Caldanaerobacter subterraneus; subsp. tengcongensis
PreQ1 riboswitch [9] = test: Binding affinity to Tte preQ1 riboswitch aptamer assessed as dissociation constant by MST analysis; type: nucleic-acid assay, Caldanaerobacter subterraneus, subsp. tengcongensis
PreQ1 riboswitch [10] = test: Binding affinity to Tte preQ1 riboswitch aptamer assessed as change in enthalpy by ITC analysis; type: nucleic-acid assay; conditions: Caldanaerobacter subterraneus; subsp. tengcongensis
PreQ1 riboswitch [11] = test: Binding affinity to Tte preQ1 riboswitch assessed as change in Gibb's free energy by ITC analysis; type: nucleic-acid assay; conditions: Caldanaerobacter subterraneus; subsp. tengcongensis
PreQ1 riboswitch [12] = test: Binding affinity to Tte preQ1 riboswitch aptamer assessed as dissociation constant by ITC analysis; type: nucleic-acid assay, Caldanaerobacter subterraneus, subsp. tengcongensis
PreQ1 riboswitch [13] = test: Binding affinity to Tte preQ1 riboswitch aptamer assessed as change in entropy by ITC analysis; type: nucleic-acid assay; conditions: Caldanaerobacter subterraneus; subsp. tengcongensis
PreQ1 riboswitch [14] = test: Binding affinity to Tte preQ1 riboswitch aptamer assessed as binding constant (Koff) by ITC analysis; type: nucleic-acid assay; conditions: Caldanaerobacter subterraneus; subsp. tengcongensis
[15] = system: S-adenosylmethionine-VI riboswitch; test: Binding affinity to Bifidobacterium angulatum SAM-VI riboswitch assessed as assessed as binding constant (Kon) by ITC analysis; type: nucleic-acid assay
[16] = target: S-adenosylmethionine-VI riboswitch; test: Binding affinity to Bifidobacterium angulatum SAM-VI riboswitch assessed as dissociation constant by ITC analysis; type: nucleic-acid assay
TAR RNA = test: Binding affinity to Alexa Fluor 488-labeled HIV-1 TAR RNA assessed as dissociation constant by fluorescence based analysis; type: nucleic-acid assay, Human immunodeficiency virus 1
[17] = target: S-adenosylmethionine-VI riboswitch; test: Binding affinity to SA sensor chip-immobilized Bifidobacterium angulatum SAM-VI riboswitch aptamer assessed as dissociation constant by SPR steady-state analysis; type: nucleic-acid assay
[18] = target: S-adenosylmethionine-VI riboswitch; test: Binding affinity to SA sensor chip-immobilized Bifidobacterium angulatum SAM-VI riboswitch aptamer assessed as dissociation constant by SPR analysis; type: nucleic-acid assay
[19] = system: S-adenosylmethionine-VI riboswitch; test: Binding affinity to SA sensor chip-immobilized Bifidobacterium angulatum SAM-VI riboswitch aptamer assessed as binding constant (Koff) by SPR analysis; type: nucleic-acid assay
[20] = system: S-adenosylmethionine-VI riboswitch; test: Binding affinity to SA sensor chip-immobilized Bifidobacterium angulatum SAM-VI riboswitch aptamer assessed as binding constant (Kon) by SPR analysis; type: nucleic-acid assay
Precursor microRNA-372 = test: Binding affinity to pre-miRNA-372 beacon (unknown origin) assessed as dissociation constant measured after 4 hrs by fluorescence based analysis; type: nucleic-acid assay
PreQ1 riboswitch [21] = test: Binding affinity to Alexa Fluor 647-labeled Tte preQ1 riboswitch assessed as dissociation constant by fluorescence based analysis; type: nucleic-acid assay, Caldanaerobacter subterraneus, subsp. tengcongensis

Structure (SMILES)	K (PreQ1 riboswitch [4])	koff (PreQ1 riboswitch [5]) [s⁻¹]	Kd (PreQ1 riboswitch [6]) [µM]	Kd (PreQ1 riboswitch [7]) [µM]	K (PreQ1 riboswitch [8])	Kd (PreQ1 riboswitch [9]) [µM]	deltaH (PreQ1 riboswitch [10]) [kcal/mol]	deltaG (PreQ1 riboswitch [11]) [kcal/mol]	Kd (PreQ1 riboswitch [12]) [µM]	-TdeltaS (PreQ1 riboswitch [13]) [kcal/mol]	K (PreQ1 riboswitch [14])	further results
Nc1nc2c(ncn2[C@@H]2O[C@H](CO)[C@@H](O)[C@H]2O)c(=O)[nH]1 [GUANOSINE]	–	–	–	–	–	–	–	–	–	–	–	K (Ribozyme [1]): 44 min⁻¹; Kd (Ribozyme [2]): 110 µM; K (Ribozyme [3]): 4 10^5/M/min
Nc1ncnc2c1ncn2[C@@H]1O[C@H](CNCC[C@H](N)C(=O)O)[C@@H](O)[C@H]1O	2.94 10^3/Ms	0.0361	12.3	20.7	1.54 10^4/M/s	33.3	-22.8	-7.48	3.31	15.3	4.66 10^-2/s	–
Nc1ncnc2c1ncn2[C@@H]1O[C@H](CSCC[C@H](N)C(=O)O)[C@@H](O)[C@H]1O [S-ADENOSYLHOMOCYSTEINE]	3.88 10^2/Ms	0.054	150	121	3.57 10^3/M/s	34.4	-8.27	-6.64	14	1.63	4.58 10^-2/s	K [15]: 5.5 10^3/M/s; Kd [16]: 10.9 µM
Nc1nc2c(ncn2[C@H]2C[C@H](N)[C@@H](CO)O2)c(=O)[nH]1	–	–	–	–	–	–	–	–	–	–	–	K (Ribozyme [1]): > 2 min⁻¹; Kd (Ribozyme [2]): 0.094 µM; K (Ribozyme [3]): > 2.1 10^7/M/min
CC(=O)Nc1nc(-c2cccc(NC(=O)[C@H]3C[C@H](OC(=O)[C@@H](N)CCCN)[C@@H](COC(=O)[C@@H](N)CCCCN)O3)c2)cs1	–	–	–	–	–	–	–	–	–	–	–	Kd (TAR RNA): 8 µM
NCCCNC[C@H]1O[C@@H](n2cnc3c(N)ncnc32)[C@H](O)[C@@H]1O	1.28 10^4/Ms	0.0481	4.17	15.9	1.36 10^4/M/s	9.75	-20.9	-7.89	1.73	13	2.38 10^-2/s	Kd [17]: 6.05 µM; Kd [18]: 3.1 µM; K [19]: 4.59 10^-2/s; K [20]: 1.48 10^4/M/s
NC[C@@H]1O[C@H](O[C@H]2[C@@H](O)[C@H](O[C@@H]3[C@@H](O)[C@H](N)C[C@H](N)[C@H]3O[C@H]3O[C@H](CN)[C@@H](O)[C@H](O)[C@H]3N)O[C@@H]2CO)[C@H](N)[C@@H](O)[C@@H]1O [FRAMYCETIN]	–	–	–	–	–	–	–	–	–	–	–	Kd (Precursor microRNA-372): 7.4 µM
NCCOc1ccc2oc3ccccc3c2c1	–	–	–	–	–	–	–	–	–	–	–	Kd (PreQ1 riboswitch [21]): 0.5 µM
C[S+](CC[C@H](N)C(=O)[O-])C[C@H]1O[C@@H](n2cnc3c(N)ncnc32)[C@H](O)[C@@H]1O (stereo partly specified) [ADEMETIONINE]	2.98 10^3/Ms	–	3.72	4.53	2.13 10^4/M/s	0.718	-14.5	-8.44	0.671	6.09	1.42 10^-2/s	K [15]: 2.46 10^4/M/s; Kd [16]: 0.33 µM
CC(=O)Nc1csc(-c2cccc(NC(=O)CCc3cn(C[C@H]4O[C@@H](O[C@@H]5[C@@H](O)[C@H](N)C[C@H](N)[C@H]5O[C@H]5O[C@H](CN)[C@@H](O)[C@H](O)[C@H]5N)[C@H](O)[C@@H]4O[C@H]4O[C@@H](CN)[C@@H](O)[C@H](O)[C@H]4N)nn3)c2)n1	–	–	–	–	–	–	–	–	–	–	–	Kd (Precursor microRNA-372): 0.016 µM
